Reference: paper PMC12786457, “Studies on the Complexation of Platinum(II) by Some 4-Nitroisothiazoles and the Cytotoxic Activity of the Resulting Complexes” (Molecules, 2025)

Assay: TLC Rf as a measure of relative lipophilicity
Format: physicochemical
Conditions: silica gel TLC Al foils
Procedure: Measurement of the melting points (m.p.) of the obtained compounds was performed with the Büchi M560 melting point device (BÜCHI Labortechnik AG, CH-9230 Flawil/SG, Flawil, Switzerland) and was uncorrected. The ESI-MS (electrospray ionization mass spectroscopy) spectra were recorded with the compactTM Bruker Daltonics Electrospray Ionization Quadrupole Time-of-Flight (ESI-Q-TOF) spectrometer (Bruker Daltonics GmbH, Bremen, Germany). The ESI-MS measurements for new compounds were performed in both positive- and negative-ion mode in LC-MS-grade using LC-MS grade methanol as a solvent. ESI-MS spectral analysis and the simulation of the theoretical monoisotopic mass of detected ions were performed using Bruker Compass Data Analysis 4.2 software (Bruker Daltonics GmbH, Bremen, Germany). All ^1H and ^13C-NMR spectra were recorded on the following instruments: Bruker NMR AVANCE III™ 600 MHz spectrometer with Ascend™ technology magnet with a quadruple resonance NMR ‘inverse’ cryoprobe (Bruker Corporation, Billerica, MA, USA) and/or Bruker ARX-300 (300 MHz) spectrometer (Bruker Analytische Messtechnik GmbH, Rheinstetten, Germany). The NMR measurements of samples of the compounds were carried out at room temperature (20–25 °C) using 5 mm tubes in deuterated acetone-d6. NMR chemical shifts were referenced to the solvent signal, i.e., for ^1H-NMR: δ (quintet of residual acetone-d6) = 2.05 ppm and for ^13C-NMR: δ (septet of acetone-d6) = 29.84 ppm. The Nicolet iS50 FT-IR spectrophotometer (Thermo Fisher Scientific Inc., Waltham, MA, USA) was used to record the Attenuated Total Reflectance IR (ATR-FT-IR) spectra (at MIR range 4000–450 cm^−1). Recording of spectra was performed on the diamond crystal surface (32 scans, resolution: 1 cm^−1, measurement temperature: 20–25 °C) with ATR intensity correction in the Laboratory of Elemental Analysis and Structural Research, Faculty of Pharmacy, Wroclaw Medical University. A Fourier transform, Bruker VERTEX 70V vacuum spectrometer equipped with an air-cooled DTGS detector was used to obtain the Far-IR (far-infrared) spectra (below 500 cm^−1) of the Pt(II) complexes. The spectra measurements were conducted with the ATR accessory, such as a diamond ATR crystal, in the resolution of 1 cm^−1 with 64 scans in the Laboratory of Vibrational Spectroscopy of the Faculty of Chemistry at Wrocław University of Science and Technology. No ATR intensity correction was applied to Far-IR spectra. Omnic 9.3.30 and Omnic Specta 2.0 software (Thermo Fisher Scientific Inc.) was used to process and analyze spectra. A double beam U-2800 Spectrophotometer (Hitachi—Science & Technology, Tokyo, Japan) was used to record UV spectra of Pt-complexes (C1 and C2) and reaction rate measurements of the GSH complexes. Dioxane solutions of complexes were used in the following concentrations: c = 2 × 10^−5 M and 3 × 10^−5 M, respectively, for C1 and C2. Measurement of UV spectra was conducted in quartz cuvettes (path length = 10.0 mm) in the range 190–400 nm (sampling interval 1 nm, scan speed 200 nm/min). All UV experiments were performed in the Laboratory of Elemental Analysis and Structural Research, Faculty of Pharmacy, Wroclaw Medical University. Baselines were corrected with pure dioxane as the reference solvent. Thin-layer chromatography (TLC) was used to monitor the progress of the reaction course and determine the purity of the synthesized compounds. Silica gel on TLC Al foils with fluorescent indicator 254 nm (Sigma-Aldrich, Merck Group, Darmstadt, Germany) was used as the stationary phase and chloroform–acetone mixtures (volume ratios 9:1, 7:3, and 1:1) as the eluent. Detection of Pt(II) compounds in the chromatograms was performed using a 0.5% acetone solution of rubeanic acid (dithiooxamide), and organic impurities were detected by observing the plates under UV light at 250 nm. […]

Compound | Rf, Eluent: Chlorofom:Acetone Ratio 1:1 Vol. | Rf, Eluent: Chlorofom:Acetone Ratio 9:1 Vol.
COC(=O)c1snc(C)c1[N+](=O)[O-].COC(=O)c1snc(C)c1[N+](=O)[O-].[Cl][Pt][Cl] [C4, trans-Dichlorobis(3-methyl-4-nitro-5-(methoxycarbonyl)isothiazole)platinum(II)] | 0.863 | 0.828
Cc1nscc1[N+](=O)[O-].Cc1nscc1[N+](=O)[O-].[Cl][Pt][Cl] [C2, trans-Dichlorobis(3-methyl-4-nitroisothiazole)platinum(II)] | 0.833 | 0.355
COC(=O)c1snc(C)c1[N+](=O)[O-].Cc1nscc1[N+](=O)[O-].[Cl][Pt][Cl] [C3, trans-Dichloro-3-methyl-4-nitroisothiazole 3-Methyl-4-nitro-5-(methoxycarbonyl)isothiazole Platinum(II)] | 0.845 | 0.645
Dichlorobis(3-methyl-4-nitroisothiazole)platinum(II) [C1] | 0.726 | 0.054
